What follows are compounds tested against T1, human NaV1.6 (hNaV1.6) (Homo sapiens, UniProt Q9UQD0) (assay: Modulation of late sodium current (INaL), PatchXpress high throughput electrophysiology). Settings: HEK293, HEK-293 cells expressing recombinant human NaV1.6, late current evoked by 300 nM ATX-II, read-out: NaV 1.6 Assay Data (percent inhibition of INaL at hNaV1.6).
T1 construct: expressed in transfected cells; host or cells: HEK-293
T1 sequence (Q9UQD0 whole entry): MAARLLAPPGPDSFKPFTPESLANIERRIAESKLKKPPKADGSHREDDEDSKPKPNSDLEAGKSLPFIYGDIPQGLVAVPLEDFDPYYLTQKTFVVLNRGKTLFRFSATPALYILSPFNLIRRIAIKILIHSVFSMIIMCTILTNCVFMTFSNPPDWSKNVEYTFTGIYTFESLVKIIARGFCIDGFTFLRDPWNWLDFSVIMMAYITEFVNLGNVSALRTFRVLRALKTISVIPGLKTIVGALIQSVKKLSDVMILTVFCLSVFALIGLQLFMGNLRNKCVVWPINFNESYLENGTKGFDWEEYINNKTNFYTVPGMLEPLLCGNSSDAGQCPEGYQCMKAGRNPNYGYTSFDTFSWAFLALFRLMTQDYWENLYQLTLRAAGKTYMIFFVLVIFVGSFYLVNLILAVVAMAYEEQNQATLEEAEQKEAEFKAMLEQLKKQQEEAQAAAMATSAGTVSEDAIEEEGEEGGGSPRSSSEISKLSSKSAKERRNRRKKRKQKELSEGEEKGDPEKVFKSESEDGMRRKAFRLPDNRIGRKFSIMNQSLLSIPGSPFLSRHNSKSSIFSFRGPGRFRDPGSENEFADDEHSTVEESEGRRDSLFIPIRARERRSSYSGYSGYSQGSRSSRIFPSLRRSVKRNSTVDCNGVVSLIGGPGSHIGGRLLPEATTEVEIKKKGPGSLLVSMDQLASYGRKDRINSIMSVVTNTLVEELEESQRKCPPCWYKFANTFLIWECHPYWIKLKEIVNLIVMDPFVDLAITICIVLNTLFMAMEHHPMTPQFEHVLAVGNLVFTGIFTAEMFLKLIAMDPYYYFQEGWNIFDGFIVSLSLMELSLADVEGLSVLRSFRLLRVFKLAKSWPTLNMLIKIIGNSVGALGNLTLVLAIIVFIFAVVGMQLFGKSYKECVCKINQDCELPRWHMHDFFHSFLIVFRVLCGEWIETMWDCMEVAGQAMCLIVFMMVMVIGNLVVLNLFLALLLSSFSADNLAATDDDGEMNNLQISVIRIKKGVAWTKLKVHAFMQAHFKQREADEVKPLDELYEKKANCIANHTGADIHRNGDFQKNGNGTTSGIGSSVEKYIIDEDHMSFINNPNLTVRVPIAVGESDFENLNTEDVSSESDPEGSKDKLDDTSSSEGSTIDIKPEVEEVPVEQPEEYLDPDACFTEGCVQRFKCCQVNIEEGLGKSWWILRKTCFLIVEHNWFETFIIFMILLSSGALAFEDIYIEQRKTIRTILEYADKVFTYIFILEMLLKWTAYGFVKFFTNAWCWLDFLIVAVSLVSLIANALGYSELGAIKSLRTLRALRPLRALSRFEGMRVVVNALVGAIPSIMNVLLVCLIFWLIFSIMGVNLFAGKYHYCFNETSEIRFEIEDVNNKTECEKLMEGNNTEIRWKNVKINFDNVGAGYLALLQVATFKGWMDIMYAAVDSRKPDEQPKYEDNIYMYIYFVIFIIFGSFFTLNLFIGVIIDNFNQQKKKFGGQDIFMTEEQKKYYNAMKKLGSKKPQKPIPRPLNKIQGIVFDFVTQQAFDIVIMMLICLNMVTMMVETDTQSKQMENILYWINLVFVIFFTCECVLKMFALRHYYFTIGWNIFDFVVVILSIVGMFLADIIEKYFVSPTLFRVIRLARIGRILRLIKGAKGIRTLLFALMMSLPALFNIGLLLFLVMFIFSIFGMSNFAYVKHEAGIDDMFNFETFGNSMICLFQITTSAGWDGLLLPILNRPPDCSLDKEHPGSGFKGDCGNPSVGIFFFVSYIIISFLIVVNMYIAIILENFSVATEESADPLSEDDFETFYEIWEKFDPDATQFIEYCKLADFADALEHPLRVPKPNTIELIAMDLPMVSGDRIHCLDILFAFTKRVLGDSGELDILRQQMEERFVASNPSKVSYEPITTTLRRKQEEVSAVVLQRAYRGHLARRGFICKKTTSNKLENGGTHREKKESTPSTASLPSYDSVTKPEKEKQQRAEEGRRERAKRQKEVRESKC
Type: cell-based
Description: Functional characterization of exemplary compounds to modulate INaL expressed by the NaV1.6 voltage-gated sodium channel was accomplished using the PatchXpress™ high throughput electrophysiology platform (Molecular Devices, Sunnyvale, CA). HEK-293 cells expressing recombinant, human NaV1.6 (hNaV1.6) were grown in DMEM/high-glucose Dulbecco's modified, 10% FBS, 2 mM sodium pyruvate, 10 mM HEPES and 400 μg/mL G418. Cells were grown to 50%-80% confluency prior to harvesting. Trypsinized cells were washed, allowed to recover for 1 hour and then resuspended in extracellular recording solution at a concentration of 1×10^6 cells/ml. The onboard liquid handling facility of the PatchXpress was used for dispensing cells and applying test compounds. NaV late currents were evoked by the application of 300 nM ATX-II. INaL was evoked by depolarizing pulses to 0 mV for 200 ms from a non-inactivating holding potential (e.g., −120 mV) at a frequency of 0.1 Hz. INaL amplitude and stability were determined by analyzing the mean current amplitude over the final 20 ms of thetest pulse. Following steady state block with exemplary compounds (e.g., as described herein), a Na+ free solution containing an impermeant cation (e.g., Choline or NDMG) was added to confirm the identify of the sodium current. Percent steady-state inhibition of INaL was calculated as: [(INaL_compound)/(INaL_control)]*100, where INaL_compound and INaL_control represent INaL recorded in the presence or absence of compound, respectively.
Work on `COC(F)(F)c1nnc2cnc(-c3ccc(O[C@H](C)C(F)(F)F)cc3C)cn12` (single isomer, unassigned) [Compound 27] yielded an inhibition at 1 µM of 30 to 70%.
`COC(F)(F)c1nnc2cnc(-c3ccc(O[C@@H](C)C(F)(F)F)cc3C)cn12` (single isomer, unassigned) [Compound 28] was tested, and the inhibition at 1 µM was 30 to 70%.
In the case of `CCOC(F)(F)c1nnc2cnc(-c3ccc(O[C@H](C)C(F)(F)F)cc3C)cn12` (single isomer, unassigned) [Compound 29], the inhibition at 1 µM is reported as > 70%.
`CCOC(F)(F)c1nnc2cnc(-c3ccc(O[C@@H](C)C(F)(F)F)cc3C)cn12` (single isomer, unassigned) [Compound 30] was tested, and the inhibition at 1 µM was 30 to 70%.
`CO[C@H](C)c1cc(OC(F)(F)F)ccc1-c1cn2c(C(F)(F)OC)nnc2cn1` (single isomer, unassigned) [Compound 31] was tested, and the inhibition at 1 µM was < 30%.
In the case of `CO[C@@H](C)c1cc(OC(F)(F)F)ccc1-c1cn2c(C(F)(F)OC)nnc2cn1` (single isomer, unassigned) [Compound 32], the inhibition at 1 µM is reported as < 30%.
`COCc1cc(OC(F)(F)F)ccc1-c1cn2c(C(F)(F)OC)nnc2cn1` [Compound 1, 3-[difluoro(methoxy)methyl]-6-[2-(methoxymethyl)-4-(trifluoromethoxy)phenyl]-[1,2,4]triazolo[4,3-a]pyrazine] was tested, and the inhibition at 1 µM was > 70%.
For `COC(F)(F)c1nnc2cnc(-c3ccc(OC(F)(F)F)cc3C)cn12` [Compound 2, 3-[difluoro(methoxy)methyl]-6-[2-methyl-4-(trifluoromethoxy)phenyl]-[1,2,4]triazolo[4,3-a]pyrazine], the inhibition at 1 µM was > 70%.
With `COCc1nnc2cnc(-c3ccc(OC(F)(F)F)cc3C)cn12` [Compound 3, 3-(methoxymethyl)-6-[2-methyl-4-(trifluoromethoxy)phenyl]-[1,2,4]triazolo[4,3-a]pyrazine] the inhibition at 1 µM was < 30%.
For `CCOC(F)(F)c1nnc2cnc(-c3ccc(OC(F)(F)F)cc3C)cn12` [Compound 4, 3-[ethoxy(difluoro)methyl]-6-[2-methyl-4-(trifluoromethoxy)phenyl]-[1,2,4]triazolo[4,3-a]pyrazine], the inhibition at 1 µM was > 70%.
`CCOCc1nnc2cnc(-c3ccc(OC(F)(F)F)cc3C)cn12` [Compound 5, 3-(ethoxymethyl)-6-[2-methyl-4-(trifluoromethoxy)phenyl]-[1,2,4]triazolo[4,3-a]pyrazine] gave an inhibition at 1 µM of 30 to 70%.
`Cc1cc(OC(F)(F)F)ccc1-c1cn2c(COCc3ccccc3)nnc2cn1` [Compound 6, 3-((benzyloxy)methyl)-6-(2-methyl-4-(trifluoromethoxy)phenyl)-[1,2,4]triazolo[4,3-a]pyrazine] was tested, and the inhibition at 1 µM was > 70%.
In the case of `Cc1cc(OC(F)(F)F)ccc1-c1cn2c(COCC(C)C)nnc2cn1` [Compound 7, 3-(isobutoxymethyl)-6-(2-methyl-4-(trifluoromethoxy)phenyl)-[1,2,4]triazolo[4,3-a]pyrazine], the inhibition at 1 µM is reported as 30 to 70%.
`COCc1nnc2ccc(-c3ccc(OC(F)(F)F)cc3C)nn12` [Compound 8, 3-(methoxymethyl)-6-[2-methyl-4-(trifluoromethoxy)phenyl]-[1,2,4]triazolo[4,3-b]pyridazine] was tested, and the inhibition at 1 µM was 30 to 70%.
`CCOC(F)(F)c1nnc2cnc(-c3ccc(OC(F)(F)F)c(C)c3)cn12` [Compound 9, 3-[ethoxy(difluoro)methyl]-6-[3-methyl-4-(trifluoromethoxy)phenyl]-[1,2,4]triazolo[4,3-a]pyrazine] showed an inhibition at 1 µM of 30 to 70%.
`Cc1cc(OC(F)(F)F)ccc1-c1cn2c(C(F)(F)OC(C)C)nnc2cn1` [Compound 10, 3-(difluoro(isopropoxy)methyl)-6-(2-methyl-4-(trifluoromethoxy)phenyl)-[1,2,4]triazolo[4,3-a]pyrazine] was tested, and the inhibition at 1 µM was 30 to 70%.
`COC(F)(F)c1nnc2cnc(-c3ccc(OC(F)(F)F)c(C)c3)cn12` [Compound 11, 3-(difluoro(methoxy)methyl)-6-(3-methyl-4-(trifluoromethoxy)phenyl)-[1,2,4]triazolo[4,3-a]pyrazine] was tested, and the inhibition at 1 µM was < 30%.
